Here are results for 8 compounds from ChEMBL document CHEMBL1201862, “PubChem BioAssay data set” (2004).

The source made the active and inactive calls.

The target in test [1] is Potassium channel subfamily K member 9 (Homo sapiens, UniProt Q9NPC2). The test is described as follows: KCNK9 flux blockade, concentration-response – cell-based, FluxOR thallium flux, selectivity assay for TASK1 inhibitor project, SAR follow-up (AID 652211).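 Further: potency is for inhibitors of the channel.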 It is filed as functional.
Test [2] has as its system A549. Briefly: viability loss in A549 cells – cell-based, plate reader, cherry-pick samples, cytotoxicity control, dose response (AID 687028). It is filed as functional. The settings on record: Homo sapiens.
The test system of test [3] is Vero. Briefly: viability loss in Vero cells – cell-based, plate reader, cherry-pick samples, cytotoxicity control, dose response (AID 687020). The class given is functional. Particulars: Chlorocebus sabaeus.
In test [4] the target is T1, Trace amine-associated receptor 1 (Homo sapiens, UniProt Q96RJ0). The test is described as follows: Counterscreen for agonists of the human trace amine associated receptor 1 (hTAAR1): Fluorescence-based cell-based high throughput dose response assay to identify hTAAR1 agonist that also desensitize TAAR1 receptor response. The class given is functional.
Test [5] deals with T1, Trace amine-associated receptor 1. The test is described as follows: Fluorescence-based cell-based high throughput dose response assay to identify agonists of the human trace amine associated receptor 1 (TAAR1). It is filed as functional.
Test [6] is described as follows: cells. The class given is functional, cell-based.
The nature of test [7]: cells. It is filed as functional, cell-based. This is another data set of the same source.
Test [8] is described as follows: reduction of Shn3 3'UTR-driven luciferase in osteoblasts – cell-based, Clone20 osteoblasts, firefly luciferase, cherry-picked, dose response (AID 624132).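 Further: firefly luciferase luminescence from reporter carrying the Shn3 3'UTR in osteoblasts.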 It is filed as functional.
Test [9] can be described thus: viability of HCT116 lacking mutant beta-catenin – cell-based, human colon tumor, dose response (AID 1045).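 Further: HCT116 colon tumor cells with beta catenin knocked out; cells exposed to compound for 60 hours.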 The class given is functional.
Test [10] in a line: EF1alpha-driven Renilla reporter with control 3'UTR suppression – Clone20-Shn3RL cells, dual-Glo, cherry-pick, set 2, counter-screen for Shn3 3'UTR targeting project, dose response (AID 720724). The class given is functional, cell-based. The settings on record: Dual-Go Shn3RL.
Test [11] can be described thus: non-specific 3'UTR reporter inhibition in Clone20-Shn3RL – cell-based, Renilla luciferase, cherry-picked, counter-screen for Shn3 inhibitor project, dose response (AID 624133). The class given is functional.
Test [12] in a line: Shn3 3'UTR reporter signal decrease – cell-based, Clone20 osteoblasts, firefly luciferase, cherry-pick, set 2, Schnurri-3 inhibitor project, dose response (AID 720490).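 Further: actives lower the luminescence signal as inhibitors.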 The class given is functional.
The nature of test [13]: cells. The class given is functional, cell-based. Particulars: HEK-CNG.
The nature of test [14]: loss of viability in HepG2 cells – cell-based, CellTiter-Glo, cherry-picked, cytotoxicity control for Shn3 inhibitor project, dose response (AID 624134). The class given is functional.
For test [15], the target named is T2, Galanin receptor type 3 (Homo sapiens, UniProt O60755).
T2 sequence (O60755 whole entry): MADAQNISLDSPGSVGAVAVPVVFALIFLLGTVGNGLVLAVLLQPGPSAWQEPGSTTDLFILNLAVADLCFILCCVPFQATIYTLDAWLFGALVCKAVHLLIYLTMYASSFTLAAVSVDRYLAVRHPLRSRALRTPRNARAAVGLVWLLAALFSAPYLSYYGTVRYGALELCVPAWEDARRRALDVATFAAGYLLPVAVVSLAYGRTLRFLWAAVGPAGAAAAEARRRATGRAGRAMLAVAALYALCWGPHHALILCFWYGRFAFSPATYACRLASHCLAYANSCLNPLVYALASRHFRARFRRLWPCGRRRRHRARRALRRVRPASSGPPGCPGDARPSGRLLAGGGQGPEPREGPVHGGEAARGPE
Briefly: Fluorescence-based cell-based primary high throughput dose response assay to identify antagonists of the Galanin Receptor 3 (GalR3). The class given is functional.

Test [16] concerns the target Endoplasmic reticulum aminopeptidase 1 (Homo sapiens, UniProt Q9NZ08). The test is described as follows: inhibition of human ERAP1 enzyme activity – biochemical, cherry-pick, set 2, plate reader, dose response (AID 743314).
Test [17] addresses Nuclear receptor subfamily 0 group B member 1 (Homo sapiens, UniProt P51843). It is filed as functional, cell-based.
Test [18] can be described thus: cells. The class given is functional, cell-based. This is another data set of the same source.
Test [19] is described as follows: viability loss in HepG2 hepatoma cells – cell-based, ATP luminescence, cherry-pick, activator set 2, cytotoxicity control, dose response (AID 1053143). The class given is functional.
The target of test [20] is Luciferin 4-monooxygenase (Photinus pyralis, UniProt P08659). Briefly: inhibition of purified Photinus pyralis luciferase – biochemical, luminescence, dose response (AID 1891).
Test [21] has as its system BJ. Briefly: BJ-TERT-LT-ST fibroblast viability loss – cell-based, RAS-independent, luminescence, dose response (AID 1935).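 Further: BJ fibroblasts immortalized with TERT plus LT and ST oncogenes.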 The class given is functional. The settings on record: Homo sapiens.
The subject of test [22] is BJ. Briefly: BJ-TERT fibroblast viability loss – cell-based, RAS-independent, luminescence, dose response (AID 1933). Particulars: Homo sapiens. The class given is functional.
A short description of test [23]: Luminescence Cell-Based Dose Confirmation HTS to Identify Inhibitors of Platelet Dense Granule Release. [Related pubchem assays: 1663 (Primary HTS), 1678 (Summary of Project)]. It is filed as functional.
Test [24] has as its system BJ. The test is described as follows: cells. It is filed as functional, cell-based, Homo sapiens. The settings on record: Homo sapiens, BJ.
For test [25], the system named is BJ. Briefly: growth inhibition of engineered Ras-driven BJ cells – cell-based, alamar blue fluorescence, cherrypicked samples, dose response (AID 2631).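 Further: confirmatory dose-response assay in RAS-dependent BJ fibroblasts engineered with TERT, LT and ST, with cytotoxicity read by fluorescence.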 The class given is functional. Particulars: Homo sapiens.
Test [26] concerns INS1. The test is described as follows: INS-1E survival protection against cytokine death – cell-based, luminescence, retest, dose response (AID 449756).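 Further: cell death triggered by IL-1 beta plus TNF-alpha plus IFN-gamma mixture; protective hits raise ATP signal compared with cytokine alone wells.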 The class given is functional. Particulars: Rattus norvegicus.
Test [27] is described as follows: DRD fibroblast viability loss – cell-based, non-viral oncogenic, luminescence, dose response (AID 1934). It is filed as functional. Particulars: Homo sapiens.
A short description of test [28]: general mammalian cell viability loss – inhibitor set, cherry-pick, set 2, cytotoxicity control for miR-122 modulator project, dose response (AID 720697). It is filed as functional, cell-based.
Test [29] addresses Paired box protein Pax-8 (Homo sapiens, UniProt Q06710). Briefly: PAX8 transcriptional activity inhibition in RMG-I – RMG-I cells, luciferase, cherry-pick, dose response (AID 687027).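 Further: luciferase reporter driven by Pax8 target thyroperoxidase promoter measured by SteadyGlo luminescence.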 It is filed as functional, cell-based.
The nature of test [30]: IGROV1 cell killing – plate reader, dry powder samples, PAX8 inhibitor project, dose response (AID 743043). It is filed as functional, cell-based. Particulars: IGROV-1.
Test [31] is described as follows: activation of miR-122 Renilla sensor silencing – cell-based, Huh7 psiCHECK-miR122, Renilla luciferase, cherry-picked, dose response (AID 651956).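 Further: huh7 hepatoma cells stably carrying a psiCHECK-2 miR-122 sensor plasmid; renilla luciferase signal reporting endogenous miR-122 activity after 48 h compound exposure.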 The class given is functional.
Test [32] can be described thus: general mammalian cell viability loss – activator set, cherry-pick, cytotoxicity control for miR-122 modulator project, dose response (AID 720690).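 Further: HEK293T human cells scored for general mammalian cytotoxicity.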 The class given is functional, cell-based.
The nature of test [33]: OVCAR8 cell viability loss – plate reader, dry powder samples, PAX8 project, dose response (AID 743197). Particulars: OVCAR-8. It is filed as functional, cell-based.

T1 sequence (Q96RJ0 whole entry): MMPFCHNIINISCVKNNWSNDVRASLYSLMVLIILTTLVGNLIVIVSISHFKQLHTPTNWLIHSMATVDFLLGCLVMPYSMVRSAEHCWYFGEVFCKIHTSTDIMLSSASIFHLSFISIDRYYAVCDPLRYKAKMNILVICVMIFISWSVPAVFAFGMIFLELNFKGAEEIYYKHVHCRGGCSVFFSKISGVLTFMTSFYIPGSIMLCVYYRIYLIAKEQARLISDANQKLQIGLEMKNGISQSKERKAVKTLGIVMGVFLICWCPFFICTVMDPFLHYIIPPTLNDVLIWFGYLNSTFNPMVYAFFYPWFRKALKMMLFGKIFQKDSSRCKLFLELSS
Sequence of Luciferin 4-monooxygenase (P08659 whole entry): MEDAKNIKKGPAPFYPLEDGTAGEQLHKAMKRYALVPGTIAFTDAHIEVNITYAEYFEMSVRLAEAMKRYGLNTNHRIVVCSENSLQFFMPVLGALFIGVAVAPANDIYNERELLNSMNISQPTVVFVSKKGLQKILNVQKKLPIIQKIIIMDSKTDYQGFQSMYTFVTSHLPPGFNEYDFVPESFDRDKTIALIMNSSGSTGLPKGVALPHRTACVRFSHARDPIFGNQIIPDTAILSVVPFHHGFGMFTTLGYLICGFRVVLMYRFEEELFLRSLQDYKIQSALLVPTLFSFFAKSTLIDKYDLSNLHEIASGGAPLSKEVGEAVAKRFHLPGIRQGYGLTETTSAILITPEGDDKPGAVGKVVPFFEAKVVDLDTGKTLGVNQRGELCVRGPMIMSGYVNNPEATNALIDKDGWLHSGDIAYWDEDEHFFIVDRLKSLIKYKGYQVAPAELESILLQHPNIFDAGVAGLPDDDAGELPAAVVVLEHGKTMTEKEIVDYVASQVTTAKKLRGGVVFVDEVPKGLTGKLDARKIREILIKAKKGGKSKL
Sequence of Endoplasmic reticulum aminopeptidase 1 (Q9NZ08 whole entry): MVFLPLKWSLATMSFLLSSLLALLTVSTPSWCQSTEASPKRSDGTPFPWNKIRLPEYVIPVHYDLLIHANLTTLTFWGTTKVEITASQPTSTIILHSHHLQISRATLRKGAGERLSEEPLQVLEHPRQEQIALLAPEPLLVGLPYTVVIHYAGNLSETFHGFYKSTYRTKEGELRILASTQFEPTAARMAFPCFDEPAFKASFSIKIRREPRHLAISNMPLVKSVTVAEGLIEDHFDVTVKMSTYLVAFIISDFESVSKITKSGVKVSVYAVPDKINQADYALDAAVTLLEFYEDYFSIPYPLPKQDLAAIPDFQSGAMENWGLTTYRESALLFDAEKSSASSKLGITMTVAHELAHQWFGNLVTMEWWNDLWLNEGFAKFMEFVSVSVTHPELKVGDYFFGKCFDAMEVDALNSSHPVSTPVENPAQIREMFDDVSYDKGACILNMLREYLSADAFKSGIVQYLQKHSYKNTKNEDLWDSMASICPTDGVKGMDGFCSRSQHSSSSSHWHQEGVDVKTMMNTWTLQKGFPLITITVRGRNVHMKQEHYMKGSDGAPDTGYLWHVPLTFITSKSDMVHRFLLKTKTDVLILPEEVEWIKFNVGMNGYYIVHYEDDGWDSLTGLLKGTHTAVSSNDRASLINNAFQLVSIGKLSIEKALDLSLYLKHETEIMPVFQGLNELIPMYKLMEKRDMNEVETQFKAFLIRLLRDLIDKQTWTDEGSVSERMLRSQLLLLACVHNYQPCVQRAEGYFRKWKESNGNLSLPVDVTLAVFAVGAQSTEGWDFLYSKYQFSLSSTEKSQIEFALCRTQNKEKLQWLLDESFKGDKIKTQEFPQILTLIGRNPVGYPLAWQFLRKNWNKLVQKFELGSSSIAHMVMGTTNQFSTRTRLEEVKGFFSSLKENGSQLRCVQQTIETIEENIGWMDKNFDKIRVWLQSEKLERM
Sequence of Nuclear receptor subfamily 0 group B member 1 (P51843 whole entry): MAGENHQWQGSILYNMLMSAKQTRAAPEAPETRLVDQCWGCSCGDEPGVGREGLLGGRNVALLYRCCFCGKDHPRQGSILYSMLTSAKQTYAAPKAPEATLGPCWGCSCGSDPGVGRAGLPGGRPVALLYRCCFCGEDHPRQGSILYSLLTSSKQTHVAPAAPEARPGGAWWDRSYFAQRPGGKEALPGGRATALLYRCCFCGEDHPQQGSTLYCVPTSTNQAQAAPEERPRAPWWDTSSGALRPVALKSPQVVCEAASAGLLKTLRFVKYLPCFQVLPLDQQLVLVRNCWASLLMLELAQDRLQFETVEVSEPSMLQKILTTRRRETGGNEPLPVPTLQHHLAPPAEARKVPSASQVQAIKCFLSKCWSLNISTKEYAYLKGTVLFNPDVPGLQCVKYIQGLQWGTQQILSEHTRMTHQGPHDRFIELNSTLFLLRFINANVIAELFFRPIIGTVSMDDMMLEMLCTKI
Sequence of Potassium channel subfamily K member 9 (Q9NPC2 whole entry): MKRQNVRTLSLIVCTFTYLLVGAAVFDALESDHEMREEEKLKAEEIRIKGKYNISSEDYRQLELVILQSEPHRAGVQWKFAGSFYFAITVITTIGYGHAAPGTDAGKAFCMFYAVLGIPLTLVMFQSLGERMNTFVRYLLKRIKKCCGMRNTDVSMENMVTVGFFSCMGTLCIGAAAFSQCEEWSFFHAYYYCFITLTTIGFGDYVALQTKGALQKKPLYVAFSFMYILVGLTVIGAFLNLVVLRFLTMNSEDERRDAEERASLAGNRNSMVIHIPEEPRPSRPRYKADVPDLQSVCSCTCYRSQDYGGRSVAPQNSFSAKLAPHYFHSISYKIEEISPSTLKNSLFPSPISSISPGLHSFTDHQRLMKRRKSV
Sequence of Paired box protein Pax-8 (Q06710 whole entry): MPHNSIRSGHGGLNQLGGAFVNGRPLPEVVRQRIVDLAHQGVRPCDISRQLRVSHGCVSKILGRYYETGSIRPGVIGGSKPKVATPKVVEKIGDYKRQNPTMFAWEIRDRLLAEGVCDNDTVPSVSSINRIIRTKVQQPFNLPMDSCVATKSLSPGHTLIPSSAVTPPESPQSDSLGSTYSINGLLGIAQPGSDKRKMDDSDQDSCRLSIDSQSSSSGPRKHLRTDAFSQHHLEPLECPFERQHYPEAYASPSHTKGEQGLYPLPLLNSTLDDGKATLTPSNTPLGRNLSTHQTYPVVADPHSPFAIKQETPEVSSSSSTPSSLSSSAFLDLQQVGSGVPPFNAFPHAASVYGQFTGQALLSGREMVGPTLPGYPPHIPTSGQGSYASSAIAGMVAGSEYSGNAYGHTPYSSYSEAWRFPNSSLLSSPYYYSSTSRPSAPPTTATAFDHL

Consider `Cc1cccc(C(=O)Nc2cccc(NC(=O)c3cccc(Cl)c3)c2)c1`, for which the 50% inhibitory concentration (IC50) in test [1] was 13.4 µM (active).

As to `O=C(CN1CCN(C(=O)C2CCC2)CC1)Nc1ccc(F)cc1`, the results for the AC50 in [2] and in test [3] were 21.4 µM (active) and 28.2 µM (active), respectively.

Consider `Cc1ccc(NC(=O)CCN2CCc3ccccc3C2)cc1`, for which the IC50 in test [4] was 7.46 µM (active); in test [7] it was > 29.9 µM (inactive). The EC50 was 1.12 µM (active) in test [5] and > 29.9 µM (inactive) in test [6].

In the case of `CCCOC(=O)c1ccc(OCC(O)Cn2c(C)nc3ccccc32)cc1` (stereo not drawn), the AC50 is 620 nM (active) in test [8]; 5.13 µM (active) in test [10]; 8.49 µM (active) in [11]; 3.38 µM (active) in test [12]; 35.6 µM (active) in test [14]. In addition, the concentration for a half-maximal effect (EC50) in [9] is 14.6 µM (active); in [13], > 29.9 µM (inactive). Also, the IC50 in [15] was 1.57 µM (active).

As to `Cc1c(C)c2ccc(O)c(CN3CCCC3)c2oc1=O`, in test [16], the AC50 was 7.31 µM (active).

In the case of `CS(=O)(=O)c1cccc(C(=O)Nc2ccc(-c3nc4ccccc4[nH]3)cc2)c1`, the IC50 in test [17] and in test [18] was > 67.5 µM (inactive) each time.

In the case of `Cc1occc1C(=O)N/N=C/c1ccc2c(c1)OCO2`, the half-maximal activity concentration (AC50) in test [19] is 8.12 µM (active); in test [26], 4.17 µM (active). Further, the EC50 in [20] was 1.4 µM (active); in test [21], 16.8 µM (active); in [22], 8.43 µM (active); in [23], 1.77 µM (active); in test [24], 7.36 µM (active); in test [25] it was > 133 µM (inactive). Moreover, the EC50 in [27] is 5.68 µM (active).

With `COc1ccc(CN(C)C[C@H]2OCCCC[C@H](C)Oc3ccc(NC(=O)Nc4ccc(C(F)(F)F)cc4)cc3C(=O)N([C@@H](C)CO)C[C@@H]2C)cc1`, the AC50 in [28] was 11.3 µM (active); in test [29], 8.38 µM (active); in test [30], 53.8 µM (active); in test [31], 6.4 µM (active); in test [32], 18.3 µM (active); in test [33], > 70 µM (inactive).
